Results taken from patent US11567074B2, “Methods for identifying proteins that bind ligands” (University of Pittsburgh—Of the Commonwealth System of …, priority 2016, dated 2023).
Several values for one entry are separate records, joined by “and”; a condition that tells them apart may be missing. Equal entries are not always repeated. Entries after “also recorded” stand apart in the source; their conditions may differ.

Legend:
β-actin = target: T1, β-actin (Homo sapiens, UniProt P60709); assay: Western blot thermal shift (CETSA) in a2780cis lysate, β-actin control; assay type: binding; conditions: 20 μM mdivi-1, a2780cis cytoplasmic lysate, control protein
T1 construct: Lysates of A2780cis cells were prepared identically as DISRUPT experiments outlined above; endogenous in cells; host or cells: a2780cis cells, cleared lysate
Method: (§1) Protein quantification by western blot was employed to confirm the relative abundance of DPP3 remaining in solution following treatment with mdivi-1, heating and centrifugation. Cytoplasmic lysates from a2780cis ovarian cancer cells were treated with 20 μM mdivi-1 of and heated to 44° C., 48° C., 52° C., 56° C., and 60° C., in singlicate; the western blot is shown in FIG. 9D. β-actin was used as a control blot to show an unchanging […] intensity as a function of temperature. […] DPP3 activity was measured using a polypeptide cleavage assay that measures a decrease in fluorescence due to the removal of an n-terminal bound fluorophore. Fluorescence was measured as a function of dose, as shown in FIG. 9E; the control and quench assays for the functional assay are shown in FIG. 9D.
(§2) The lysate stock was placed on ice until thawed.
(§3) Lysates of A2780cis cells were prepared identically as DISRUPT experiments outlined above. The soluble protein was separated on Tris-glycine gels (Invitrogen). The separated proteins were blotted onto a polyvinylidene difluoride (PVDF) membrane and non-specific binding was blocked overnight at 4° C. in phosphate-buffered saline containing 0.1% Tween 20 and 10% nonfat dry milk (blocking buffer). Membranes were incubated with primary antibodies, DPP3 (GeneTex), Drpl (BD Biosciences), and β-actin (Sigma-Aldrich), in blocking buffer overnight at 4° C. […]

[1] = target: T2, dipeptidyl peptidase 3 (DPP3) (Homo sapiens, UniProt Q9NY33); assay: DISRUPT label-free differential mass spectrometry, a2780cis lysate; assay type: binding; conditions: 20 μM mdivi-1, a2780cis lysate, 56° C. for ten minutes, n=6 per condition
T2 construct: endogenous in cells; host or cells: a2780cis cells (Sigma Aldrich), cleared freeze-thaw lysate
T2 sequence (Q9NY33 1-737): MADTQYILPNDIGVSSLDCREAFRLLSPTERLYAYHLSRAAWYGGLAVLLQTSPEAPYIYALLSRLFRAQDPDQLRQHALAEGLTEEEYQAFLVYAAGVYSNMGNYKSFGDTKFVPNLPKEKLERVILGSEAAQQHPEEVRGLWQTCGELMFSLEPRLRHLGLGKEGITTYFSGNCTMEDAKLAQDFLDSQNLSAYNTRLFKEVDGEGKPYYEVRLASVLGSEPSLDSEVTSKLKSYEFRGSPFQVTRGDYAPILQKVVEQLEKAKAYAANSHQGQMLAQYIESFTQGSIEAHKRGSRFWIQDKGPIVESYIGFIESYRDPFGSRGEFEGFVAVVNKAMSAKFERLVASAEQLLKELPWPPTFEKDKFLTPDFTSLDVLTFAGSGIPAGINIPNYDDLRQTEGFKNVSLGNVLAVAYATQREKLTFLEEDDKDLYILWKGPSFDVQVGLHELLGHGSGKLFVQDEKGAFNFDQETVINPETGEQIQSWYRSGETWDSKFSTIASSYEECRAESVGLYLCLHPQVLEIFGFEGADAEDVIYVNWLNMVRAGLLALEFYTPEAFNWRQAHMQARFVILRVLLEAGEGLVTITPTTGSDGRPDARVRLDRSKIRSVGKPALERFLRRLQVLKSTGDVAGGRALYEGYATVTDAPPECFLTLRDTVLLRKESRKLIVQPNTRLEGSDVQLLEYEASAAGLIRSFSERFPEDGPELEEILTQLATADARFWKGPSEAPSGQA
Method: Equal aliquots of a2780cis cells were treated with 20 μM mdivi-1 and DMSO respectively, split into six technical replicates per condition, and heated to 56° C. for ten minutes to stimulate differential agglutination of drug-bound and unbound proteins. […] Data-dependent MS/MS data was analyzed and results in the identification of 35,369 features linked to 5488 unique peptides sequences that were associated with 947 proteins. Features […] having non-zero intensity values in at least four of six samples per condition were selected, and a Student's t-test was applied to compute a p value for each feature, and a volcano plot was created to show the distribution of features as a function of fold change and significance, as shown in the volcano plot in FIG. 7A. Two of the significant features were identified as peptide […] (SEQ ID NO: 2) deriving from dipeptidyl peptidase 3, DPP3, using MS/MS spectra acquired during the initial dMS experiment. The 6 remaining highly significant features were identified as peptides […] (SEQ ID NO: 6), […] (SEQ ID NO: 4), and […] (SEQ ID NO: 1) that are specific to the protein sequence for DPP3, using MS/MS spectra acquired in subsequent analyses.
as §2
Samples were denatured and digested utilizing the FASP method described by Wisniewski et al. (2009) and Manza et al. (2005). […]

DRP1 = target: T3, DRP1 (Homo sapiens, UniProt O00429); assay: Western blot thermal shift (CETSA) in a2780cis lysate, DRP1; assay type: binding; conditions: 20 μM mdivi-1, a2780cis cytoplasmic lysate, 44-60° C., vs vehicle
T3 construct: Lysates of A2780cis cells were prepared identically as DISRUPT experiments outlined above; endogenous in cells; host or cells: a2780cis cells, cleared lysate
T3 sequence (O00429 whole entry): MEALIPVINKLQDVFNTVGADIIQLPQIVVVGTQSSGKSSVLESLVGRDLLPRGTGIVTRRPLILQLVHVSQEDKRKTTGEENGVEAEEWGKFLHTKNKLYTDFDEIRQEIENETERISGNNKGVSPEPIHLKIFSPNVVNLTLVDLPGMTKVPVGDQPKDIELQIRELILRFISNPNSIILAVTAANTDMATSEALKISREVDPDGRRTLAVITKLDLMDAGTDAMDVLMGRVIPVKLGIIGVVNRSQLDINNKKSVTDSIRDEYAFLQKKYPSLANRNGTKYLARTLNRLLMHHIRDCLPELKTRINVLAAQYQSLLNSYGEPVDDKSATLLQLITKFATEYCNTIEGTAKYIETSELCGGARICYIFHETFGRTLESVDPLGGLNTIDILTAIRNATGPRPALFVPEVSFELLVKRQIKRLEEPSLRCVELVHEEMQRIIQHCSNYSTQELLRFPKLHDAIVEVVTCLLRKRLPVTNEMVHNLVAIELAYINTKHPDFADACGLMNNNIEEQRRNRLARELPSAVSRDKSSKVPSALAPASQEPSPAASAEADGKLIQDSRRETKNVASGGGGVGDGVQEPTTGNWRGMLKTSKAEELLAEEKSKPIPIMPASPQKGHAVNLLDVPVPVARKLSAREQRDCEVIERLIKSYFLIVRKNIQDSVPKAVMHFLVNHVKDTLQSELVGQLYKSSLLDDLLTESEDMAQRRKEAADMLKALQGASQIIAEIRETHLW
Method: as §1, §2, §3

DPP3 [2] = target: T4, DPP3 (Homo sapiens, UniProt Q9NY33); assay: Western blot thermal shift (CETSA) in a2780cis lysate, DPP3; assay type: binding; set-up: endogenous in cells; host or cells: a2780cis cells (Sigma Aldrich), cleared freeze-thaw lysate; conditions: 20 μM mdivi-1, a2780cis cytoplasmic lysate, 44-60° C., vs vehicle
T4 sequence (Q9NY33 1-737): T2 sequence (Q9NY33 1-737)
Method: as §1, §2, §3

DPP3 [3] = target: T4, DPP3; assay: DPP3 activity assay (fluorogenic polypeptide cleavage); assay type: biochemical; set-up: purchased BPS Bioscience 80203; conditions: IC50 upon DPP3 activity, purified recombinant DPP3, substrate Arg2-AMC, fluorescence as a function of dose
Method: as §1
The inhibition of DPP3 peptidase activity by mdivi-1 was evaluated using a commercially available fluorogenic DPP3 Assay Kit (catalog number 80203, BPS Bioscience, San Diego Calif.) that contains purified recombinant DPP3 protein and DPP3 substrate Arg2-AMC. The fluorescence intensity was measured using a microplate reader, Synergy 2 (BioTek instruments).

[4] = test system: tumor cells including cisplatin resistant ovarian cancers cells; conditions: wide range of tumor cells incl. cisplatin resistant ovarian cancer cells; cited from earlier work
[5] = target: T5, Huntingtin-interacting protein K, HYPK (Homo sapiens, UniProt Q9NX55); assay: DISRUPT label-free differential mass spectrometry, K562 lysate, HYPK; assay type: binding; conditions: 2 μM staurosporine, 56° C. for ten minutes, n=10 per condition
T5 construct: endogenous in cells; host or cells: K562 cells (ATCC), cleared lysate in kinase buffer
T5 sequence (Q9NX55 1-121): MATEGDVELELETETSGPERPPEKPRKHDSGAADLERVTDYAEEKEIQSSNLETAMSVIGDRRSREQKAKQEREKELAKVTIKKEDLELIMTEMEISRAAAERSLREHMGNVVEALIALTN
Method: Samples were heated to 56° C. for ten minutes to stimulate protein agglutination (protein clumping) and agglutinated proteins were removed from solution by centrifugation at 20,000 g.
To measure the relative abundance of proteins in solution, lysates were subjected to tryptic digestion, desalting and quantitative proteomic analysis. Peptide samples were separated by reversed phase C18 nanoflow liquid chromatography (nLC), ionized by electrospray ionization, and analyzed with a hybrid ion trap/high-resolution Fourier transform mass spectrometer. […] To enhance the quantification of the vast number of molecular features present in high-resolution data, the acquisition of full-scan MS spectra were prioritized over the collection of MS/MS spectra that are used for peptide identification, resulting in approximately 10 quantitative measurements per chromatographic peak.
Samples were analyzed in a balanced run order to compensate for drifts in mass spectrometry response that occurs as a function of time. Each sample was analyzed once and the resulting data file was uploaded to a cloud-based data analysis platform, CHORUS (www.chorusproject.org), that was developed to support the efficient analysis of high-resolution mass spectrometry data. Label-free differential mass spectrometry (dMS) was used to quantify hundreds of thousands of features detected by nLC-MS analysis. […]

SMILES | thermal shift of β-actin (western blot) (β-actin) | DISRUPT ranking / significant features of DPP3 [1] | thermal shift of DRP1 (western blot) (DRP1) | thermal shift of DPP3 (protein remaining in solution, western blot) (DPP3 [2]) | IC50 (DPP3 [3]) | killing of tumor cells [4] | peptides identified among the 15 highly significant features (p<0.0001), HYPK [5]
COc1cc(-n2c(S)nc3ccccc3c2=O)c(Cl)cc1Cl [mdivi-1] | no shifts were observed | eight DPP3 peptides from 18 features were significant; also recorded: top putative target | no evidence of a thermal shift; also recorded: no shifts were observed | remained in solution at 52 °C and 56 °C at higher levels compared to vehicle treated controls; also recorded: a strong shift was seen for DPP3 | ~70 nM and 70 nM | robust killing | –
CN[C@@H]1C[C@H]2O[C@@](C)([C@@H]1OC)n1c3ccccc3c3c4c(c5c6ccccc6n2c5c31)C(=O)NC4 [staurosporine] | – | – | – | – | – | – | one peptide
